Among the test systems are RPMI-8226 leukemia; MALME-3M melanoma; U251 CNS; TK-10 renal; SK-MEL-2 melanoma; COLO 205 colon; LOX IMVI melanoma; NCI-H23 lung; UO-31 renal; OVCAR-3 ovarian; SF-268 CNS; HS 578T breast; HOP-92 NSCLC; SF-539 CNS; NCI/ADR-RES ovarian; HOP-62 NSCLC; RXF 393 renal; PC-3 prostate; MDA-N.
Test in all cases: NCI-60 cell line screen, 48 h

TGI data for 10 compounds are collected here from PubChem BioAssay (NCI).

Structures are written as SMILES.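 Assay format: 96-well plates, 48-hour exposure. Definition used: TGI = concentration required for complete inhibition of growth.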

For the compound `CSc1nc(C)cc(=O)n1C1OC(COC(C)=O)C(OC(C)=O)C(OC(C)=O)C1OC(C)=O` (stereo unspecified), the TGI with RPMI-8226 leukemia, in the test with MALME-3M melanoma, in the test with U251 CNS, in the test on TK-10 renal, in the test with SK-MEL-2 melanoma and in the test on COLO 205 colon was over 100 µM throughout. Moreover, the TGI in the test with LOX IMVI melanoma, with NCI-H23 lung, in the test on UO-31 renal, in the test with OVCAR-3 ovarian and in the test on SF-268 CNS was over 100 µM in each case.

`CCOC(=O)C1=C(C)N(CC(C)C)C2(O)C(OC)CC(=O)C3C(=O)N(c4ccccc4)C(=O)C132` (stereo unspecified): the TGI with RPMI-8226 leukemia was over 100 µM; with MALME-3M melanoma it was 96.7 µM; in the test with HS 578T breast it was over 100 µM; with HOP-92 NSCLC, over 100 µM; with U251 CNS, over 100 µM; in the test with TK-10 renal, over 100 µM. Besides, the TGI with SK-MEL-2 melanoma was 51.1 µM; with SF-539 CNS, over 100 µM; in the test with COLO 205 colon, over 100 µM; in the test with LOX IMVI melanoma it was over 100 µM; with NCI/ADR-RES ovarian, over 100 µM; in the test on HOP-62 NSCLC, over 100 µM. Moreover, the TGI with NCI-H23 lung was over 100 µM; in the test on UO-31 renal it was 39.2 µM; with OVCAR-3 ovarian, over 100 µM; with RXF 393 renal it was 54.5 µM; with SF-268 CNS, over 100 µM; in the test on PC-3 prostate, over 100 µM.

On to `CCN(CC)C(=S)S`, for which the TGI was over 100 µM in the test on RPMI-8226 leukemia; 60.4 µM with MALME-3M melanoma; over 100 µM in the test with HOP-92 NSCLC; over 100 µM in the test with TK-10 renal; over 100 µM in the test with SK-MEL-2 melanoma; over 100 µM with SF-539 CNS. Also, the TGI in the test with COLO 205 colon, in the test on LOX IMVI melanoma, in the test on HOP-62 NSCLC, with UO-31 renal, with RXF 393 renal and with SF-268 CNS was over 100 µM in each case.

On to `C=CCCCCCCCCC(=O)ON(Cc1ccc(O)c(OC)c1)C(=O)C(F)(F)F`, for which the TGI with RPMI-8226 leukemia, in the test on MALME-3M melanoma, with HS 578T breast, with HOP-92 NSCLC, in the test on U251 CNS and with TK-10 renal was over 100 µM throughout. Also, the TGI in the test on SF-539 CNS, in the test with COLO 205 colon, in the test with LOX IMVI melanoma, in the test with NCI/ADR-RES ovarian, in the test with HOP-62 NSCLC and in the test with NCI-H23 lung was over 100 µM each time. In addition, the TGI with UO-31 renal was 68 µM; with RXF 393 renal, over 100 µM; in the test on SF-268 CNS, over 100 µM.

For the compound `COc1cccc(-c2[nH]c3cc4c(cc3c(=O)c2C(=O)O)OCO4)c1`, the TGI with RPMI-8226 leukemia is over 100 µM; with MDA-N it was 51.5 µM; in the test with HOP-92 NSCLC, over 100 µM; in the test with U251 CNS it was over 100 µM; in the test on SK-MEL-2 melanoma, over 100 µM; in the test on SF-539 CNS, 69.4 µM. In addition, the TGI is 74.9 µM in the test on COLO 205 colon; over 100 µM with LOX IMVI melanoma; 47.3 µM with NCI/ADR-RES ovarian; over 100 µM in the test on HOP-62 NSCLC; over 100 µM in the test on NCI-H23 lung; over 100 µM with UO-31 renal. Also, the TGI with OVCAR-3 ovarian, in the test on RXF 393 renal and in the test on PC-3 prostate was over 100 µM throughout.

On to `O[C@]12c3ccccc3C1CCCCC2N1CCOCC1` (stereo partly specified), for which the TGI in the test on RPMI-8226 leukemia, in the test on MALME-3M melanoma, in the test on U251 CNS, in the test with TK-10 renal, with SK-MEL-2 melanoma and in the test with COLO 205 colon was over 100 µM in each case. For the same compound, the TGI in the test on LOX IMVI melanoma, in the test on HOP-62 NSCLC, in the test with NCI-H23 lung, in the test on UO-31 renal, in the test with RXF 393 renal and in the test on SF-268 CNS was over 100 µM in each case.

Turning to `O=C(O)Cc1ccc(Oc2nc3ccccc3nc2-c2ccccc2)cc1`, the TGI with RPMI-8226 leukemia, with MALME-3M melanoma, with HS 578T breast, in the test on U251 CNS, in the test with TK-10 renal and with SK-MEL-2 melanoma was over 100 µM each time. Moreover, the TGI in the test on SF-539 CNS, with COLO 205 colon, in the test on LOX IMVI melanoma, with NCI/ADR-RES ovarian, in the test on HOP-62 NSCLC and in the test with NCI-H23 lung was over 100 µM in each case. For the same compound, the TGI was over 100 µM in the test with UO-31 renal; 65.6 µM in the test on OVCAR-3 ovarian; 98.2 µM in the test with RXF 393 renal; over 100 µM with SF-268 CNS; over 100 µM with PC-3 prostate.

On to `CC(=O)Nc1sccc1S(=O)(=O)c1ccc(Cl)cc1`, for which the TGI in the test on RPMI-8226 leukemia, with MALME-3M melanoma, in the test on HS 578T breast, in the test on HOP-92 NSCLC, in the test with U251 CNS and in the test with TK-10 renal was over 100 µM in each case. The TGI with SK-MEL-2 melanoma, in the test with SF-539 CNS, in the test with COLO 205 colon, with NCI/ADR-RES ovarian, in the test on NCI-H23 lung and with UO-31 renal was over 100 µM in each case. Besides, the TGI in the test on OVCAR-3 ovarian, in the test with RXF 393 renal, with SF-268 CNS and in the test with PC-3 prostate was over 100 µM in each case.

For the compound `Clc1ccc(Cn2cc(/C=N/n3cnnc3)c3ccccc32)cc1`, the TGI is over 100 µM with RPMI-8226 leukemia; over 100 µM with MALME-3M melanoma; over 100 µM with HS 578T breast; 68.3 µM in the test with HOP-92 NSCLC; over 100 µM with U251 CNS; 28.7 µM with TK-10 renal. In addition, the TGI in the test on SK-MEL-2 melanoma is 82.9 µM; with SF-539 CNS, over 100 µM; in the test on COLO 205 colon, over 100 µM; in the test on LOX IMVI melanoma, over 100 µM; with NCI/ADR-RES ovarian, over 100 µM; in the test on HOP-62 NSCLC it was over 100 µM. For the same compound, the TGI in the test on NCI-H23 lung was over 100 µM; with UO-31 renal, over 100 µM; in the test with OVCAR-3 ovarian it was over 100 µM; in the test on RXF 393 renal, 46.8 µM; with SF-268 CNS, over 100 µM; in the test on PC-3 prostate, over 100 µM.

Take `Nc1ncnc2c1ncn2CCOC(c1ccccc1)P(=O)(O)O` (stereo unspecified): the TGI in the test on MALME-3M melanoma, with U251 CNS, in the test on TK-10 renal, with SK-MEL-2 melanoma, with SF-539 CNS and with COLO 205 colon was over 100 µM in each case. In addition, the TGI in the test on LOX IMVI melanoma, in the test on NCI-H23 lung, in the test with UO-31 renal, in the test on OVCAR-3 ovarian, in the test on RXF 393 renal and with SF-268 CNS was over 100 µM each time.
